Test results from patent publication US10544136B2, “Modulators of sphingosine phosphate receptors” (The Scripps Research Institute, priority 2008, dated 2020).
pEC50: −log10 of the molar value. Like-named read-outs stand apart in the source and are kept apart here.

Tests used:
S1P3 = S1P3 (Homo sapiens (Human), UniProt Q99500); experiment: S1P3 agonist assay (Ec50 S1P3Ag); type: cell-based; conditions: read-out: Ec 50 (S1P3Ag); for EC50: unit μM
S1P1 = S1P1 (Homo sapiens (Human), UniProt P21453); experiment: S1P1 agonist assay (Ec50 S1P1Ag); type: cell-based
S1P1, sequence (P21453 whole entry): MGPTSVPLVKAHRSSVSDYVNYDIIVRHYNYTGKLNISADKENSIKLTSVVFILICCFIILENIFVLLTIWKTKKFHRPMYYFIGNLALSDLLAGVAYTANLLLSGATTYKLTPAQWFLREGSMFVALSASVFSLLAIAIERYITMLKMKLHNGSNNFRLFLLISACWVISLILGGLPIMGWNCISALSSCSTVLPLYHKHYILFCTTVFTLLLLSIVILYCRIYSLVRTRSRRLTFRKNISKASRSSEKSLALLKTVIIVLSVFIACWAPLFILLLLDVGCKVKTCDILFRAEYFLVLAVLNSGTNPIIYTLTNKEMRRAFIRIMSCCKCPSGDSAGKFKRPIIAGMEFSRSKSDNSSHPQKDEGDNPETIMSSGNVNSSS
From the text: The exact dosage will depend upon the activity of the compound, mode of administration, on the therapy desired, form in which administered, the subject to be treated and the body weight of the subject to be treated, and the preference and experience of the physician or veterinarian in charge. S1P1 agonist bioactivity of the compounds of the invention can be determined by use of an in vitro assay system which measures the activation of S1P1, which can be expressed as EC50 values, as are well known in the art inhibitors of the invention can be determined by the method described in the Examples.

S1P3, sequence (Q99500 whole entry, species assumed): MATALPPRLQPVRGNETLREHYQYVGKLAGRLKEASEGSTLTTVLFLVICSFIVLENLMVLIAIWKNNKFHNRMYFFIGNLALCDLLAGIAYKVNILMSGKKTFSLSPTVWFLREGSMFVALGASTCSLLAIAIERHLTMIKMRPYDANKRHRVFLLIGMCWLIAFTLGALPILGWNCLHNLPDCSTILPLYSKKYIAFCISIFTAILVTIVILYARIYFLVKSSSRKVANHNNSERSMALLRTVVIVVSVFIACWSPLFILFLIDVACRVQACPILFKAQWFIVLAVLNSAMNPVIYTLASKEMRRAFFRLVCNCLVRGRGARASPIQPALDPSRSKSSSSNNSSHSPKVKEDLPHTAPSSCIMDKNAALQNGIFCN

SMILES	pEC50 (S1P3)	EC50 (S1P1; unit μM/uM)	pEC50 (S1P1)	EC50 (S1P3)
FC(F)(F)c1ccc(-c2noc(Cc3ccncc3)n2)cc1 [Compound 5]	5.29	4.1 µM	–	–
FC(F)(F)c1ccc(-c2noc(-c3ccnc(Cl)c3)n2)cc1 [Compound 7]	6.11	–	6.57	–
CCCOc1ccc(-c2nc(-c3ccncc3)no2)cc1 [Compound 10]	5.48	–	6.61	–
COc1cc(-c2noc(-c3ccnc(C)c3)n2)ccc1C [Compound 23]	5.46	–	5.48	–
CCOc1cc(-c2nc(-c3ccncc3)no2)ccc1OC [Compound 50]	5.57	–	7.19	–
CC(C)(C)c1cc(-c2nc(-c3ccncc3)no2)cc(C(C)(C)C)c1 [Compound 53]	6.49	–	6.81	–
COc1ccc(-c2nc(-c3ccncc3)no2)cc1OC1CCCC1 [Compound 54]	6.49	–	7.15	–
CC(C)Cc1ccc(C(C)c2nc(-c3ccncc3)no2)cc1 (centres unmarked) [Compound 55]	6.35	–	6.95	–
CCOc1ccc(-c2nc(-c3cncc(C)c3)no2)cc1OCC [Compound 58]	5.47	–	7.93	–
FC(F)(F)c1cc(-c2nc(-c3ccncc3)no2)ccc1-c1ccccc1 [Compound 59]	5.25	–	7.97	–
FC(F)(F)c1cc(-c2nc(-c3ccncc3)no2)cc(C(F)(F)F)c1 [Compound 104]	5.46	–	6.58	–
FC(F)(F)c1cc(Br)cc(-c2nc(-c3ccncc3)no2)c1 [Compound 106]	5.10	–	7.20	–
CCOc1ccc(-c2nc(-c3ccc(C)c(C)c3)no2)cc1OCC [Compound 184]	5.70	–	7.93	–
CCOc1ccc(-c2nc(-c3ccc(CN(C)C)c(C)c3)no2)cc1OCC [Compound 203]	–	–	7.91	10 µM
CCOc1ccc(-c2nc(-c3cccc4ccccc34)no2)cc1OCC [Compound 211]	–	–	7.57	13.5 µM
CCOc1ccc(-c2nc(-c3ccc(CO)nc3)no2)cc1OCC [Compound 214]	–	–	7.80	13.5 µM

SMILES	pEC50 (S1P3)	EC50 (S1P1; unit μM/uM)	pEC50 (S1P1)	EC50 (S1P3)
CCOc1ccc(-c2nc(-c3cccc4c3CCC4N(C)C)no2)cc1OCC (centres unmarked) [Compound 217]	7.87	–	7.61	–
CCOc1ccc(-c2nc(-c3cccc4c3CCC4N3CC[C@@H](O)C3)no2)cc1OCC (some centres unmarked) [Compound 228]	5.54	–	7.75	–
CCOc1ccc(-c2nc(-c3ccnc(CN4CC[C@@H](O)C4)c3)no2)cc1OCC [Compound 235]	–	–	7.09	–
CCOc1ccc(-c2nc(-c3ccc4[nH]cc(CNCCN(C)C)c4c3)no2)cc1OCC [Compound 238]	–	–	6.16	–
CCOc1ccc(-c2nc(-c3ccc4[nH]cc(CNCCO)c4c3)no2)cc1OCC [Compound 239]	–	–	6.06	–
CCOc1ccc(-c2nc(-c3ccc4[nH]cc(CN(C)CCO)c4c3)no2)cc1OCC [Compound 240]	–	–	5.51	–
CCOc1ccc(-c2nc(-c3ccnc(C(=O)O)c3)no2)cc1OCC [Compound 241]	–	–	7.02	–
CCOc1ccc(-c2nc(-c3ccnc(C(=O)NCCO)c3)no2)cc1OCC [Compound 242]	–	–	7.58	–
CCOc1ccc(-c2nc(-c3ccc(CNCCO)cc3C)no2)cc1OCC [Compound 252]	–	–	8.00	–
CCOc1ccc(-c2nc(-c3ccc4occc4c3)no2)cc1OCC [Compound 253]	–	–	7.58	–
CC(C)Oc1ccc(-c2nc(-c3cccc4c3CCC4NCCO)no2)cc1C(F)(F)F (centres unmarked) [Compound 263, 2-(4-(5-(4-isopropoxy-3-(trifluoromethyl)phenyl)-1,2,4-oxadiazol-3-yl)-2,3-dihydro-1H-inden-1-ylamino)ethanol]	–	–	8.00	–
CCOc1ccc(-c2nc(-c3cccc4c3CCC4NCCO)no2)cc1C(F)(F)F (centres unmarked) [Compound 264, 2-(4-(5-(4-ethoxy-3-(trifluoromethyl)phenyl)-1,2,4-oxadiazol-3-yl)-2,3-dihydro-1H-inden-1-ylamino)ethanol]	–	–	8.10	–
CCOc1ccc(-c2nc(-c3cccc4c3CCC4O)no2)cc1[N+](=O)[O-] (centres unmarked) [Compound 266, 4-(5-(4-ethoxy-3-nitrophenyl)-1,2,4-oxadiazol-3-yl)-2,3-dihydro-1H-inden-1-ol]	–	–	6.65	–
CCOc1ccc(-c2ncc(-c3ccncc3)o2)cc1OCC [Compound 268]	–	–	7.97	–
CCOc1ccc(-c2cc(-c3ccncc3)no2)cc1OCC [Compound 269]	–	–	6.95	–

Further lines, results first:

pEC50 (S1P3)	EC50 (S1P1; unit μM/uM)	pEC50 (S1P1)	EC50 (S1P3)	SMILES
5.92	–	8.48	–	CC(C)Cc1ccc(C(C)c2nc(-c3ccc(S(N)(=O)=O)cc3)no2)cc1 (centres unmarked) [Compound 16]
6.18	–	8.43	–	CCOc1ccc(-c2nc(-c3ccncc3)no2)cc1OCC [Compound 35]
6.41	–	8.77	–	CCOc1ccc(-c2nc(-c3ccnc(N)c3)no2)cc1OCC [Compound 36]
6.10	–	9.00	–	Cc1cnccc1-c1noc(-c2ccc(-c3ccccc3)c(C(F)(F)F)c2)n1 [Compound 60]
5.88	–	9.11	–	Nc1cc(-c2noc(-c3ccc(-c4ccccc4)c(C(F)(F)F)c3)n2)ccn1 [Compound 61]
–	–	8.30	24 µM	Cc1cncc(-c2noc(-c3ccc(-c4ccccc4)c(C(F)(F)F)c3)n2)c1 [Compound 62]
6.08	–	9.28	–	CCOc1ccc(-c2nc(-c3cccc4[nH]ccc34)no2)cc1OCC [Compound 110]
6.28	–	9.70	–	CCOc1ccc(-c2nc(-c3cccc4c3CCN4)no2)cc1OCC [Compound 123]
5.28	–	8.39	–	CCOc1ccc(-c2nc(-c3cccc(CN(C)C)c3C)no2)cc1OCC [Compound 129]
5.62	–	8.23	–	CCOc1ccc(-c2nc(-c3cccc4c3CCN4C)no2)cc1OCC [Compound 151]
5.68	–	8.22	–	CCOc1ccc(-c2nc(-c3cccc(CN4CCCC4)c3C)no2)cc1OCC [Compound 152]
5.70	–	8.16	–	CCOc1ccc(-c2nc(-c3ccc4[nH]ccc4c3)no2)cc1OCC [Compound 153]
5.74	–	8.51	–	CCOc1ccc(-c2nc(-c3ccc4c(c3)CCN4)no2)cc1OCC [Compound 154]
5.66	–	8.66	–	CCOc1ccc(-c2nc(-c3ccnc4[nH]ccc34)no2)cc1OCC [Compound 167]
6.11	–	9.10	–	CCOc1ccc(-c2nc(-c3cccc(CO)c3C)no2)cc1OCC [Compound 177]
6.22	–	8.38	–	CCOc1ccc(-c2nc(-c3ccc(CO)cc3)no2)cc1OCC [Compound 186]

pEC50 (S1P3)	EC50 (S1P1; unit μM/uM)	pEC50 (S1P1)	EC50 (S1P3)	SMILES
5.82	–	8.15	–	CCOc1ccc(-c2nc(-c3cccc(CO)c3)no2)cc1OCC [Compound 187]
6.16	–	8.96	–	CCOc1ccc(-c2nc(-c3ccc(CCO)cc3)no2)cc1OCC [Compound 192]
6.15	–	9.30	–	CCOc1ccc(-c2nc(-c3ccc(CO)cc3C)no2)cc1OCC [Compound 201]
6.03	–	9.85	–	CCOc1ccc(-c2nc(-c3ccnc(CO)c3)no2)cc1OCC [Compound 209]
–	–	> 9.30	–	CCOc1ccc(-c2nc(-c3cccc4c3CCN4CCO)no2)cc1OCC [Compound 234]
–	–	9.15	–	CCOc1ccc(-c2nc(-c3cccc4c3CCC4NCCN(CC)CC)no2)cc1OCC (centres unmarked) [Compound 243]
–	–	8.21	–	CCOc1ccc(-c2nc(-c3cccc4c3CCC4N3CC[C@@H](O)C3)no2)cc1OCC (some centres unmarked) [Compound 250]
6.16	–	8.47	–	CCOc1ccc(-c2nc(-c3cccc(CNCCO)c3C)no2)cc1OCC [Compound 251]
–	–	8.14	–	CCOc1ccc(-c2noc(-c3ccncc3)n2)cc1OCC [Compound 257]
–	–	9.00	–	CCOc1ccc(-c2nc(-c3ccc4c(c3)CCN4CCCO)no2)cc1OCC [Compound 258]
–	–	> 9.30	–	CC(C)Oc1ccc(-c2nc(-c3cccc4c3CCC4O)no2)cc1C(F)(F)F (centres unmarked) [Compound 259, 4-(5-(4-isopropoxy-3-(trifluoromethyl)phenyl)-1,2,4-oxadiazol-3-yl)-2,3-dihydro-1H-inden-1-ol]
–	–	> 9.30	–	CCOc1ccc(-c2nc(-c3cccc4c3CCC4O)no2)cc1C(F)(F)F (centres unmarked) [Compound 260, 4-(5-(4-ethoxy-3-(trifluoromethyl)phenyl)-1,2,4-oxadiazol-3-yl)-2,3-dihydro-1H-inden-1-ol]
–	–	> 9.30	–	CCOc1ccc(-c2nc(-c3cccc4c3CCC4O)no2)cc1C#N (centres unmarked) [Compound 262, 2-ethoxy-5-(3-(1-hydroxy-2,3-dihydro-1H-inden-4-yl)-1,2,4-oxadiazol-5-yl)benzonitrile]
–	–	8.60	–	CC(C)Oc1ccc(-c2ncc(-c3cccc4c3CCC4O)o2)cc1C#N (centres unmarked) [Compound 270]
–	–	> 9.30	–	CC(C)Oc1ccc(-c2ncc(-c3cccc4c3CCC4NCCO)o2)cc1C#N (centres unmarked) [Compound 271]
